Reference: patent publication US20240342292A1, “Compounds for the Degradation of EGFR Kinase” (BeiGene Switzerland GmbH, priority 2021, published 2024)

Experiments:
[1] = system: Del19/T790M/C797S EGFR; assay: EGFR degradation HTRF assay in H1975-clone #28 (DTC) cells; type: cell-based; details: H1975 # 28 DTC (Del19/T790M/C797S), 16h treatment; for DC50: HTRF; for Dmax (%): maximum percentage of degradation
Procedure, shortened: (§1)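 Each homozygous H1975 clone was dosed for 16 h at 37 °C with an 8-dose, 5-fold series (top 10 uM, 0.2% DMSO). An HTRF antibody pair then measured EGFR in lysates, and a sigmoidal fit of percent inhibition gave DC50.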

[2] = molecular target: T1, L858R/T790M/C797S EGFR (Homo sapiens, UniProt P00533, C797S/L858R/T790M); assay: EGFR degradation HTRF assay in H1975-clone #25 (LTC) cells; type: cell-based; details: 16h treatment; for DC50: H1975 # 25-LTC (L858R/T790M/C797S), HTRF; for Dmax: NCI-H1975, H1975 # 25-LTC (L858R/T790M/C797S), maximum percentage of degradation
T1 construct: expressed in transfected cells; host or cells: H1975 clone #25 (lentiviral over-expression, endogenous EGFR knocked out by sgRNA)
Procedure, shortened: as §1

T1 sequence (P00533 25-1210 T790M/C797S/L858R): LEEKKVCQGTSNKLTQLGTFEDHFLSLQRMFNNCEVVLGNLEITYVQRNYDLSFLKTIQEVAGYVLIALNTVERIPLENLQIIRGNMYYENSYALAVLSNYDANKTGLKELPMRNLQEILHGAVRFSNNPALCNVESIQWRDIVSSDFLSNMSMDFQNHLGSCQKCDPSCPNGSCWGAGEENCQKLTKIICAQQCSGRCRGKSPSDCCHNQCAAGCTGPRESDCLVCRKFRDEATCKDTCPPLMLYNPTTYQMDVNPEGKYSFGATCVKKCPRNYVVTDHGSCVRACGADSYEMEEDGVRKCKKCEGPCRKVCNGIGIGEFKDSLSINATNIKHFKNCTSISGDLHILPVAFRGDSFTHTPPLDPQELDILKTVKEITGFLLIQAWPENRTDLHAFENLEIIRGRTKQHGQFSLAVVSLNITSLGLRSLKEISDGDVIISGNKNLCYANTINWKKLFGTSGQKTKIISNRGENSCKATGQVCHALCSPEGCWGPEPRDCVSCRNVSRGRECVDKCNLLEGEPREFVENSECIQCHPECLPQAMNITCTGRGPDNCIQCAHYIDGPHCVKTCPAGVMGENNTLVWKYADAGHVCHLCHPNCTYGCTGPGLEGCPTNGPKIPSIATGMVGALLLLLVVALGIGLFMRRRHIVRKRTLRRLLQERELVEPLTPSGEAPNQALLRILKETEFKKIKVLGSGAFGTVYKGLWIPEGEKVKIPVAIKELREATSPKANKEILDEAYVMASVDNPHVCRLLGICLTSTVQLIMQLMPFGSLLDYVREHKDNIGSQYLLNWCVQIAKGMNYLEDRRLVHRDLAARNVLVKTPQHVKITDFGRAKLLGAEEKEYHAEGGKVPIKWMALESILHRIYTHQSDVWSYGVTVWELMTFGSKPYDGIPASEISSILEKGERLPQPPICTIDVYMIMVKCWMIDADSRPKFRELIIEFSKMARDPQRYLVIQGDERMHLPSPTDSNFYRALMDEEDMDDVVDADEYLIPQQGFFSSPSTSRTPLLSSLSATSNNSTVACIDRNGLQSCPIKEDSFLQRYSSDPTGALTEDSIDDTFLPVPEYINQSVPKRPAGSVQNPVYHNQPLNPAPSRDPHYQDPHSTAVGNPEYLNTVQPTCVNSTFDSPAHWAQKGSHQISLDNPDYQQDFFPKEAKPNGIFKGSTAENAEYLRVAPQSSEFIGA

SMILES | DC50 [1] | DC50 [2] | Dmax [2] | Dmax (%) [1]
Cc1cc2cc(n1)-c1cnn(C)c1OCCC[C@@H](C)CN1/C(=N/C2=O)Nc2ccc(C(=O)N3CC[C@H]4CN(CCc5cc(F)c([C@H]6CCC(=O)NC6=O)c(F)c5)CC[C@H]43)cc21 [Example 304, (R)-3-(2,6-difluoro-4-(2-((3aS,7aR)-1-((R,E)-1^1,2^6,7-trimethyl-3-oxo-5^2,5^3-dihydro-1^1H,5^1H-11-oxa-4-aza-5(2,1)-benzo[d]imidazola-2(2,4)-pyridina-1(4,5)-pyrazolacycloundecaphane-5^6-carbonyl)octahydro-5H-pyrrolo[3,2-c]pyridin-5-yl)ethyl)phenyl)piperidine-2,6-dione] | 0.595 nM | 0.61 nM | 79.9% | 78.73%
Cc1cc2cc(n1)-c1cnn(C)c1OCCC[C@@H](C)CN1/C(=N/C2=O)Nc2ccc(C(=O)N3CC(NCCc4cc(F)c([C@H]5CCC(=O)NC5=O)c(F)c4)C3)cc21 [Example 305, (R)-3-(2,6-difluoro-4-(2-((1-((R,E)-1^1,2^6,7-trimethyl-3-oxo-5^2,5^3-dihydro-1^1H,5^1H-11-oxa-4-aza-5(2,1)-benzo[d]imidazola-2(2,4)-pyridina-1(4,5)-pyrazolacycloundecaphane-5^6-carbonyl)azetidin-3-yl)amino)ethyl)phenyl)piperidine-2,6-dione] | 0.668 nM | 0.861 nM | 90.6% | 80.65%
Cc1cc2cc(n1)-c1cnn(C)c1OCCC[C@@H](C)CN1/C(=N/C2=O)Nc2ccc(C(=O)N3CC(N(C)CCc4cc(F)c([C@H]5CCC(=O)NC5=O)c(F)c4)C3)cc21 [Example 306, (R)-3-(2,6-difluoro-4-(2-(methyl(1-((R,E)-1^1,2^6,7-trimethyl-3-oxo-5^2,5^3-dihydro-1^1H,5^1H-11-oxa-4-aza-5(2,1)-benzo[d]imidazola-2(2,4)-pyridina-1(4,5)-pyrazolacycloundecaphane-5^6-carbonyl)azetidin-3-yl)amino)ethyl)phenyl)piperidine-2,6-dione] | 0.614 nM | 0.742 nM | 84.3% | 63.09%
Cc1cc2cc(n1)-c1cnn(C)c1OCCC[C@@H](C)CN1/C(=N/C2=O)Nc2ccc(C(=O)NC3CN(CCc4cc(F)c([C@H]5CCC(=O)NC5=O)c(F)c4)C3)cc21 [Example 307, (R,E)-N-(1-(4-((R)-2,6-dioxopiperidin-3-yl)-3,5-difluorophenethyl)azetidin-3-yl)-1^1,2^6,7-trimethyl-3-oxo-5^2,5^3-dihydro-1^1H,5^1H-11-oxa-4-aza-5(2,1)-benzo[d]imidazola-2(2,4)-pyridina-1(4,5)-pyrazola cycloundecaphane-5^6-carboxamide] | 1.28 nM | 1.78 nM | 84.8% | 52.25%
Cc1cc2cc(n1)-c1cnn(C)c1OCCC[C@@H](C)CN1/C(=N/C2=O)Nc2ccc(C(=O)N(C)C3CN(CCc4cc(F)c([C@H]5CCC(=O)NC5=O)c(F)c4)C3)cc21 [Example 308] | 0.646 nM | 0.702 nM | 88.5% | 64.88%
Cc1cc2cc(n1)-c1cnn(C)c1OCCC[C@@H](C)CN1/C(=N/C2=O)Nc2ccc(C(=O)N(C)C3CN(C4CCN(c5cc(F)c([C@H]6CCC(=O)NC6=O)c(F)c5)CC4)C3)cc21 [Example 309, (R,E)-N-(1-(1-(4-((R)-2,6-dioxopiperidin-3-yl)-3,5-difluorophenyl)piperidin-4-yl)azetidin-3-yl)-N,1′,2^6,7-tetramethyl-3-oxo-5^2,5^3-dihydro-1^1H,5^1H-11-oxa-4-aza-5(2,1)-benzo[d]imidazola-2(2,4)-pyridina-1(4,5)-pyrazolacycloundecaphane-5^6-carboxamide] | 0.684 nM | 0.459 nM | 83% | 65.2%
Cc1cc2cc(n1)-c1cnn(C)c1OCCC[C@@H](C)CN1/C(=N/C2=O)Nc2ccc(C(=O)N3CCC4(CC3)CN(CCc3cc(F)c([C@H]5CCC(=O)NC5=O)c(F)c3)C4)cc21 [Example 310, (R)-3-(2,6-difluoro-4-(2-(7-((R,E)-1^1,2^6,7-trimethyl-3-oxo-5^2,5^3-dihydro-1^1H,5^1H-11-oxa-4-aza-5(2,1)-benzo[d]imidazola-2(2,4)-pyridina-1(4,5)-pyrazolacycloundecaphane-5^6-carbonyl)-2,7-diazaspirononan-2-yl)ethyl)phenyl)piperidine-2,6-dione] | 0.578 nM | 0.464 nM | 87.8% | 80.51%
Cc1cc2cc(n1)-c1cnn(C)c1OCCC[C@@H](C)CN1/C(=N/C2=O)Nc2ccc(C(=O)N3CCC(C4CN(CCc5cc(F)c([C@H]6CCC(=O)NC6=O)c(F)c5)C4)CC3)cc21 [Example 312, (R)-3-(2,6-difluoro-4-(2-(3-(1-((R,E)-1^1,2^6,7-trimethyl-3-oxo-5^2,5^3-dihydro-1^1H,5^1H-11-oxa-4-aza-5(2,1)-benzo[d]imidazola-2(2,4)-pyridina-1(4,5)-pyrazolacycloundecaphane-5^6-carbonyl)piperidin-4-yl)azetidin-1-yl)ethyl)phenyl)piperidine-2,6-dione] | 0.689 nM | 0.906 nM | 85.8% | 47.95%
Cc1cc2cc(n1)-c1cnn(C)c1OCCC[C@@H](C)CN1/C(=N/C2=O)Nc2ccc(C(=O)OC3CCN(CCc4cc(F)c([C@H]5CCC(=O)NC5=O)c(F)c4)CC3)cc21 [Example 313, 1-(4-((R)-2,6-dioxopiperidin-3-yl)-3,5-difluorophenethyl)piperidin-4-yl (R,E)-1^1,2^6,7-trimethyl-3-oxo-5^2,5^3-dihydro-1^1H,5^1H-11-oxa-4-aza-5(2,1)-benzo[d]imidazola-2(2,4)-pyridina-1(4,5)-pyrazolacycloundecaphane-5^6-carboxylate] | 0.967 nM | 1.25 nM | 81% | 70.56%
Cc1cc2cc(n1)-c1cnn(C)c1OCCC[C@@H](C)CN1/C(=N/C2=O)Nc2ccc(C(=O)N(C)C3CCN(CCc4cccc5c4n(C)c(=O)n5C4CCC(=O)NC4=O)CC3)cc21 (stereo partly drawn) [Example 314, (7R,E)-N-(1-(2-(1-(2,6-dioxopiperidin-3-yl)-3-methyl-2-oxo-2,3-dihydro-1H-benzo[d]imidazol-4-yl)ethyl)piperidin-4-yl)-N,1^1,2^6,7-tetramethyl-3-oxo-5^2,5′-dihydro-1^1H,5^1H-11-oxa-4-aza-5(2,1)-benzo[d]imidazola-2(2,4)-pyridina-1(4,5)-pyrazolacycloundecaphane-5^6-carboxamide] | 3.37 nM | 2.59 nM | 75.3% | 50.86%

Now from value to compound, other results behind:

DC50 [1] | DC50 [2] | Dmax [2] | SMILES | Dmax (%) [1]
3.18 nM | 1.37 nM | 80.5% | Cc1cc2cc(n1)-c1cnn(C)c1OCCC[C@@H](C)CN1/C(=N/C2=O)Nc2ccc(C(=O)N(C)C3CCN(CCc4cccc5c4oc(=O)n5C4CCC(=O)NC4=O)CC3)cc21 (stereo partly drawn) [Example 315, (7R,E)-N-(1-(2-(3-(2,6-dioxopiperidin-3-yl)-2-oxo-2,3-dihydrobenzo[d]oxazol-7-yl)ethyl)piperidin-4-yl)-N,1^1,2,7-tetramethyl-3-oxo-5^2,5^3-dihydro-1^1H,5^1H-11-oxa-4-aza-5(2,1)-benzo[d]imidazola-2(2,4)-pyridina-1(4,5)-pyrazolacycloundecaphane-5^6-carboxamide] | 63.86%
0.925 nM | 0.655 nM | 77.9% | Cc1cc2cc(n1)-c1cnn(C)c1OCCC[C@@H](C)CN1/C(=N/C2=O)Nc2ccc(C(=O)N(C)C3CCN(CCc4cccc5c4C4(CC4)C(=O)N5C4CCC(=O)NC4=O)CC3)cc21 (stereo partly drawn) [Example 316, (7R,E)-N-(1-(2-(1′-(2,6-dioxopiperidin-3-yl)-2′-oxospiro[cyclopropane-1,3′-indolin]-4′-yl)ethyl)piperidin-4-yl)-N,1^1,2^6,7-tetramethyl-3-oxo-5^2,5′-dihydro-1^1H,5^1H-11-oxa-4-aza-5(2,1)-benzo[d]imidazola-2(2,4)-pyridina-1(4,5)-pyrazolacycloundecaphane-5^6-carboxamide] | 47.67%
0.728 nM | 1.14 nM | 80.2% | Cc1cc2cc(n1)-c1cnn(C)c1OCCC[C@@H](C)CN1/C(=N/C2=O)Nc2ccc(C(=O)N(C)C3CCN(CCc4cccc5c4C(C)(C)C(=O)N5C4CCC(=O)NC4=O)CC3)cc21 (stereo partly drawn) [Example 317, (7R,E)-N-(1-(2-(1-(2,6-dioxopiperidin-3-yl)-3,3-dimethyl-2-oxoindolin-4-yl)ethyl)piperidin-4-yl)-N,1^1,2^6,7-tetramethyl-3-oxo-5^2,5^3-dihydro-1^1H,5^1H-11-oxa-4-aza-5(2,1)-benzo[d]imidazola-2(2,4)-pyridina-1(4,5)-pyrazolacycloundecaphane-5^6-carboxamide] | 52.86%
0.995 nM | 1.33 nM | 76.4% | Cc1cc2cc(n1)-c1cnn(C)c1OCCC[C@@H](C)CN1/C(=N/C2=O)Nc2ccc(CN(C)[C@@H]3CCCN(C(=O)[C@@H]4CCN(c5cc(F)c([C@H]6CCC(=O)NC6=O)c(F)c5)C4)C3)cc21 [Example 318, (R)-3-(2,6-difluoro-4-((R)-3-((R)-3-(methyl(((R,E)-1^1,2^6,7-trimethyl-3-oxo-5^2,53-dihydro-1^1H,5^1H-11-oxa-4-aza-5(2,1)-benzo[d]imidazola-2(2,4)-pyridina-1(4,5)-pyrazolacycloundecaphane-5^6-yl)methyl)amino)piperidine-1-carbonyl)pyrrolidin-1-yl)phenyl)piperidine-2,6-dione] | 67.67%
